Assay results from PubChem BioAssay AID1996.
Converted amounts (≈) assume the structure as drawn.

details: buffer; pH 7.4; 200.0 µM

Question: With Cc1ccc(OC(C)C(=O)Nc2ccc(Cl)cn2)c([N+](=O)[O-])n1 (stereo unspecified) as the compound, how does the solubility kinetic read?
Answer: 18.7 µg/mL (≈ 55.5 µM)

Question: Which solubility kinetic does the source give for COC(=O)c1ccccc1NC(=O)CSc1ncccn1 here?
Answer: > 45.5 µg/mL

Question: With Cc1cc(N2CCN(C(=O)/C=C/C(=O)O)CC2)c2ccccc2n1 as the compound, how does the solubility kinetic read?
Answer: 48.6 µg/mL (≈ 149 µM)

Question: Which solubility kinetic does the source give for COc1cc(C(=O)Nc2cccnc2)cc(OC)c1OC here?
Answer: > 43.2 µg/mL

Question: Which solubility kinetic does the source give for Cc1cc(C)c(SCCc2ccncc2)c(C)c1 here?
Answer: 3.1 µg/mL (≈ 12 µM)

Question: With Cn1c(=S)[nH]c2scc(-c3cccs3)c2c1=O as the compound, how does the solubility kinetic read?
Answer: > 42.1 µg/mL

Question: With CCOC(=O)C(O)(c1ccc(N=c2ccccn2C)cc1)C(F)(F)F (stereo unspecified) as the compound, how does the solubility kinetic read?
Answer: 46.3 µg/mL (≈ 131 µM)

Question: With O=C(O)Cn1c(=O)n(Cc2ccccc2)c2ccccc21 as the compound, how does the solubility kinetic read?
Answer: > 42.3 µg/mL

Question: With CC(C)N=C(Nc1cccnc1)c1ccccc1 as the compound, how does the solubility kinetic read?
Answer: > 35.9 µg/mL

Question: Which solubility kinetic does the source give for CCOC(=O)C1=C(C)Nc2nc3ccccc3n2C1c1ccc(O)cc1 (stereo unspecified) here?
Answer: < 0.2 µg/mL

Question: For Cc1cc([N+](=O)[O-])nn1CC(=O)N(C)C1CCCCC1, which solubility kinetic is on record?
Answer: > 42 µg/mL

Question: Which solubility kinetic does the source give for O=C(Cc1c(F)cccc1Cl)Nc1cc(S(=O)(=O)N2CCOCC2)ccc1N1CCCC1 here?
Answer: 2 µg/mL (≈ 4.15 µM)

Question: With O=C(NC1=NCCS1)c1ccccc1Br as the compound, how does the solubility kinetic read?
Answer: > 42.8 µg/mL

Question: With O=C(NCCN1CCCCC1)Nc1ccc([N+](=O)[O-])cc1 as the compound, how does the solubility kinetic read?
Answer: > 43.9 µg/mL

Question: With CCOc1ccc(NC(=O)N(CCN(C)C)C(C)c2cccnc2)cc1 (stereo unspecified) as the compound, how does the solubility kinetic read?
Answer: > 53.5 µg/mL

Question: With Cc1ccc(C(=O)NCc2cccnc2)o1 as the compound, how does the solubility kinetic read?
Answer: > 32.4 µg/mL

Question: With CN1CCN(C(=O)c2cc([N+](=O)[O-])ccc2Cl)CC1 as the compound, how does the solubility kinetic read?
Answer: > 42.6 µg/mL

Question: With COC(CSc1ncnc2c1oc1nc3c(cc12)COC(C)(C)C3)OC as the compound, how does the solubility kinetic read?
Answer: 54.6 µg/mL (≈ 145 µM)

Question: For Cc1ccc(NC(=O)C(C)OC(=O)CSc2ccccc2)cc1 (stereo unspecified), which solubility kinetic is on record?
Answer: > 49.4 µg/mL

Question: With O=C(NCCc1ccc(Cl)cc1)C1CCN(c2ncccn2)CC1 as the compound, how does the solubility kinetic read?
Answer: 6.7 µg/mL (≈ 19.4 µM)

Question: For COc1ccccc1C/C(N)=N/OC(=O)c1ccc2c(c1)OCO2, which solubility kinetic is on record?
Answer: > 49.2 µg/mL

Question: With Cc1ccc(-c2csc(N=C(N)N)n2)cc1 as the compound, how does the solubility kinetic read?
Answer: 15.7 µg/mL (≈ 67.6 µM)

Question: For CCOC(=O)N1CCN(C(=O)c2cc3cc(F)ccc3[nH]2)CC1, which solubility kinetic is on record?
Answer: 40.5 µg/mL (≈ 127 µM)

Question: Which solubility kinetic does the source give for O=C(O)c1ccc[nH]c1=S here?
Answer: > 23.3 µg/mL

Question: For COCCNC(=O)Cn1cc(C(=O)c2ccco2)c2ccccc21, which solubility kinetic is on record?
Answer: > 49 µg/mL

Question: With Cc1ccc(C(=O)NCCc2c[nH]c3ccccc23)c(C)c1 as the compound, how does the solubility kinetic read?
Answer: 23 µg/mL (≈ 78.7 µM)

Question: With O=C(COC(=O)c1ccc2c(c1)OCCO2)Nc1ccc(F)cc1 as the compound, how does the solubility kinetic read?
Answer: 2.6 µg/mL (≈ 7.85 µM)

Question: With CCOc1ccc(S(=O)(=O)NCCCl)cc1 as the compound, how does the solubility kinetic read?
Answer: > 39.6 µg/mL

Question: With Cc1ccc(CN2CCN(c3ncccn3)CC2)c(C)c1 as the compound, how does the solubility kinetic read?
Answer: 19.4 µg/mL (≈ 68.7 µM)

Question: With CC(C(=O)Nc1ccc(C#N)cc1)N(C)Cc1cccs1 (stereo unspecified) as the compound, how does the solubility kinetic read?
Answer: > 44.9 µg/mL

Question: Which solubility kinetic does the source give for Nc1nc(Cl)cc(N2CCCC2)n1 here?
Answer: > 29.8 µg/mL

Question: With CCOC(=O)C1=C(C)Nc2ccccc2N=C1NC(=O)C1CCN(C(=O)c2ccccc2C)CC1 as the compound, how does the solubility kinetic read?
Answer: 35.3 µg/mL (≈ 74.4 µM)

Question: For CC(=O)c1cccc(NC(=O)CN2C(=O)NC(C)(C)C2=O)c1, which solubility kinetic is on record?
Answer: > 45.5 µg/mL

Question: For C=C(C)Cn1cnc2cc(C)c(C)cc21, which solubility kinetic is on record?
Answer: > 30 µg/mL

Question: With NC(=O)C1CCN(C(=O)/C(=C/c2ccco2)NC(=O)c2ccccc2)CC1 as the compound, how does the solubility kinetic read?
Answer: > 55.1 µg/mL

Question: Which solubility kinetic does the source give for CC(=O)Nc1sc(C)c(C)c1C(=O)OCC(=O)Nc1cccc(C)c1 here?
Answer: 1.1 µg/mL (≈ 3.05 µM)

Question: For CN(C)CC1CCCCC1=O.Cl (stereo unspecified), which solubility kinetic is on record?
Answer: > 28.8 µg/mL

Question: With Cc1ccc(CNC(=O)Cc2noc3ccccc23)cc1 as the compound, how does the solubility kinetic read?
Answer: 2.3 µg/mL (≈ 8.2 µM)

Question: Which solubility kinetic does the source give for Cc1ccc(C(=O)Nc2cccc(NC(=O)c3ccc(C)o3)n2)o1 here?
Answer: 4 µg/mL (≈ 12.3 µM)

Question: For O=[N+]([O-])c1cnc2ccc3ccccc3c2c1, which solubility kinetic is on record?
Answer: 3.1 µg/mL (≈ 13.8 µM)

Question: For Cc1ccc(NC(=O)c2oc3ccccc3c2C)nc1, which solubility kinetic is on record?
Answer: 6.4 µg/mL (≈ 24 µM)

Question: With O=C(Nc1nccs1)C1CC(=O)N(CCc2ccc(F)cc2)C1 (stereo unspecified) as the compound, how does the solubility kinetic read?
Answer: > 50 µg/mL

Question: With Cc1ccc(C2CN(C)CC2C(=O)c2ccc(F)cc2)cc1 (stereo unspecified) as the compound, how does the solubility kinetic read?
Answer: 35.8 µg/mL (≈ 120 µM)

Question: With O=C(/C=C/c1cccc2ccccc12)N1CCOCC1 as the compound, how does the solubility kinetic read?
Answer: > 40.1 µg/mL

Question: With CCOC(=O)Cn1nc2sc3ccccc3n2c(=O)c1=O as the compound, how does the solubility kinetic read?
Answer: > 45.8 µg/mL

Question: Which solubility kinetic does the source give for COc1ccccc1C1CCN(Cc2c(C)[nH]c3ccccc23)CC1 here?
Answer: > 50.2 µg/mL

Question: For Cc1ccc(N2C(=O)CCC2(C(N)=O)c2ccccc2)cc1 (stereo unspecified), which solubility kinetic is on record?
Answer: > 44.2 µg/mL

Question: For Cc1ccc(NC(=O)CN(C)C(=O)C2COc3ccccc3O2)cc1 (stereo unspecified), which solubility kinetic is on record?
Answer: 47.4 µg/mL (≈ 139 µM)

Question: With CN1C(=O)CC(c2ccccc2)Nc2ccccc21.Cl (stereo unspecified) as the compound, how does the solubility kinetic read?
Answer: > 43.3 µg/mL

Question: Which solubility kinetic does the source give for COc1ccc(N2CC(NC(=O)N3CCc4ccccc43)CC2=O)cc1OC (stereo unspecified) here?
Answer: > 57.2 µg/mL

Question: For O=C(O)c1ccc(S(=O)(=O)NCC2CCCCC2)cc1, which solubility kinetic is on record?
Answer: > 44.6 µg/mL

Question: For Cc1csc2nc(NC(=O)c3ccccc3)sc(=O)c12, which solubility kinetic is on record?
Answer: 0.9 µg/mL (≈ 2.98 µM)

Question: With O=C(O)c1cc2[nH]c3c(c2cc1Cl)CCCC3 as the compound, how does the solubility kinetic read?
Answer: > 37.5 µg/mL

Question: Which solubility kinetic does the source give for O=C(COC(=O)/C=C/c1ccc(C(F)(F)F)cc1)NCCC1=CCCCC1 here?
Answer: 4.3 µg/mL (≈ 11.3 µM)

Question: For CCOC(=O)c1c(C)[n+]([O-])c2ccc3c(non3O)c12, which solubility kinetic is on record?
Answer: 8.7 µg/mL (≈ 31.4 µM)

Question: With CCOc1ccc(N2CC(C(=O)NCc3ccccc3)CC2=O)cc1 (stereo unspecified) as the compound, how does the solubility kinetic read?
Answer: 9.8 µg/mL (≈ 29 µM)

Question: With C=C(C)CN(CC)c1ccc(N2C(=O)CCCC2=O)cc1[N+](=O)[O-] as the compound, how does the solubility kinetic read?
Answer: 17.8 µg/mL (≈ 53.7 µM)

Question: For O=C(NCc1ccco1)c1ccc(Cn2c(=S)[nH]c3ccccc3c2=O)cc1, which solubility kinetic is on record?
Answer: 0.4 µg/mL (≈ 1.02 µM)

Question: Which solubility kinetic does the source give for CCC1Oc2ccc(C)cc2N(CC(=O)NCC2CCCO2)C1=O (stereo unspecified) here?
Answer: 43.6 µg/mL (≈ 131 µM)

Question: Which solubility kinetic does the source give for Cc1ccc(Nc2c(F)c(F)c(F)c(F)c2C(=O)O)c(C)c1 here?
Answer: 40.4 µg/mL (≈ 129 µM)

Question: Which solubility kinetic does the source give for CC1=C(C#N)S(=O)(=O)C(C#N)C(c2ccccc2)C1 (stereo unspecified) here?
Answer: 30.1 µg/mL (≈ 111 µM)

Question: For O=C(Nc1ccc(Cl)c(S(=O)(=O)N2CCOCC2)c1)C1CCCC1, which solubility kinetic is on record?
Answer: > 55.9 µg/mL

Question: With O=C(CNS(=O)(=O)c1cccs1)N1CCCCC1 as the compound, how does the solubility kinetic read?
Answer: > 43.3 µg/mL

Question: For O=C(NCc1nc2ccccc2[nH]1)C1CCCCC1, which solubility kinetic is on record?
Answer: > 38.6 µg/mL

Question: Which solubility kinetic does the source give for Cc1cccc(NC(=O)Cc2ccc(Br)cc2)n1 here?
Answer: 38.6 µg/mL (≈ 126 µM)

Question: For Cc1ccc(C(=O)NCCN2CCOCC2)c(Cl)c1, which solubility kinetic is on record?
Answer: > 42.4 µg/mL

Question: For COc1ccc(NC(=O)CN(C)CC(=O)NC2CCC(C)CC2)cc1 (stereo unspecified), which solubility kinetic is on record?
Answer: > 52.1 µg/mL

Question: For CC(=O)c1ccc(NC(=O)c2cc(=O)[nH]c3ccccc23)cc1, which solubility kinetic is on record?
Answer: 2 µg/mL (≈ 6.53 µM)

Question: For CCOC(=O)c1cc(C#N)c(SCC(=O)OC)[nH]c1=O, which solubility kinetic is on record?
Answer: > 44.4 µg/mL

Question: For Cc1nc2ccccn2c1C(=O)NNC(=O)Nc1cccc(C(F)(F)F)c1, which solubility kinetic is on record?
Answer: > 56.6 µg/mL

Question: With Cc1ccc(-n2nc(C(=O)O)cc2-c2ccccc2Cl)cc1 as the compound, how does the solubility kinetic read?
Answer: > 46.9 µg/mL

Question: With CCCOc1ccc(C(=O)Nc2ccc3c(c2)OCO3)cc1 as the compound, how does the solubility kinetic read?
Answer: 1 µg/mL (≈ 3.34 µM)

Question: With Cc1ccc(-c2nc3ccccc3nc2-c2ccccc2)cc1 as the compound, how does the solubility kinetic read?
Answer: 1 µg/mL (≈ 3.37 µM)

Question: For O=C(O)CC(c1ccccc1)N1C(=O)c2ccccc2C1=O (stereo unspecified), which solubility kinetic is on record?
Answer: 43.9 µg/mL (≈ 149 µM)

Question: For O=C(COC(=O)CCSc1ccccc1)Nc1ccccc1Br, which solubility kinetic is on record?
Answer: 18.2 µg/mL (≈ 46.2 µM)

Question: Which solubility kinetic does the source give for CCn1cc(CNC(=S)Nc2cccc3ccccc23)cn1 here?
Answer: > 46.6 µg/mL

Question: For CN(Cc1cccc([N+](=O)[O-])c1)Cc1cccc2ccccc12, which solubility kinetic is on record?
Answer: < 0.3 µg/mL

Question: With COc1cccc(CN(C)CC2CCCN(CCc3ccc(Cl)cc3)C2)c1OC (stereo unspecified) as the compound, how does the solubility kinetic read?
Answer: 53.3 µg/mL (≈ 128 µM)

Question: For Cc1ccc(C(=O)NCC(=O)OCC(=O)c2c(N)n(C)c(=O)n(C)c2=O)cc1C, which solubility kinetic is on record?
Answer: 7.3 µg/mL (≈ 18.1 µM)

Question: For Cc1cccc(NC(=O)CCCc2ccccc2)c1, which solubility kinetic is on record?
Answer: 31.3 µg/mL (≈ 124 µM)

Question: For O=C(NCC(=O)N1CCc2ccccc2C1)c1ccccc1Cl, which solubility kinetic is on record?
Answer: > 49.3 µg/mL

Question: With Nc1ccc(C(=O)C(=O)c2ccccc2)cc1 as the compound, how does the solubility kinetic read?
Answer: > 33.8 µg/mL

Question: Which solubility kinetic does the source give for Cc1cccn2c(=O)c(C=O)c(N3CC(C)OC(C)C3)nc12 (stereo unspecified) here?
Answer: > 45.2 µg/mL

Question: For COc1cc(-c2nnc(SCc3cc(=O)oc4cc(O)c(O)cc34)o2)cc(OC)c1OC, which solubility kinetic is on record?
Answer: > 68.8 µg/mL

Question: For N#CCCN(CCC#N)C(=S)NC1CC2C=CC1C2 (stereo unspecified), which solubility kinetic is on record?
Answer: > 41.2 µg/mL

Question: For O=C(COC(=O)c1cccc(OC(F)F)c1)Nc1ncccn1, which solubility kinetic is on record?
Answer: 30.2 µg/mL (≈ 93.4 µM)
